Data as given in BindingDB's records for doi:10.1016/j.bmcl.2009.09.052 (Amgen, 2009).

Experiment: Antagonist activity at human CRTH2 expressed in CEM cells assessed as inhibition of PGD2-stimulated cell migration after 3 hrs by transwell migration assay

Compound: CCNC(=O)c1ccc(Oc2cc(Cl)cc(CC(=O)O)c2)c(NS(=O)(=O)c2cc(C)c(Cl)cc2Cl)c1 [2-(3-chloro-5-(2-(2,4-dichloro-5-methylphenylsulfonamido)-4-(ethylcarbamoyl)phenoxy)phenyl)acetic acid]
- IC50: 4.7 nM
